In patent US20160145247A1, “Aminomethyl-Biaryl Derivatives Complement Factor D inhibitors and uses thereof” (NOVARTIS AG, priority 2013, published 2016):

Molecular target: T1, factor D (Homo sapiens, UniProt P00746)
T1 construct: made in house; host or cells: E. coli
Assay: factor D inhibition assay of Biological Example 2
Format: biochemical

T1 sequence (P00746 26-253): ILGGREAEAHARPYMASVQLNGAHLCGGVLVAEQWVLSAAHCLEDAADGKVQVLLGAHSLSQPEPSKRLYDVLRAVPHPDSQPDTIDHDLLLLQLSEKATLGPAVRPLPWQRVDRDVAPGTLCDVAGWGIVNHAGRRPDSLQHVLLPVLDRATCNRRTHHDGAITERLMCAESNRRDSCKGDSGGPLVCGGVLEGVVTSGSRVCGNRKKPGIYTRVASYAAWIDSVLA

## C[C@@H](N)c1cccc(-c2cc(COc3ccccc3CC(=O)O)cc(C(=O)N(C)C)c2)c1F [Example 216-R]
  IC50: 147 nM

## C[C@@H](N)c1cccc(-c2cc(Cl)cc(COc3ccccc3CC(=O)O)c2)c1F [Example 216-S]
  IC50: 21 nM

## C[C@@H](N)c1cccc(-c2cc(COc3ccccc3CC(=O)O)cc(NCc3ccccn3)c2)c1F [Example 216-T]
  IC50: 9 nM

## C[C@@H](N)c1cccc(-c2cc(COc3ccccc3CC(=O)O)cc(NC3CCCC3)c2)c1F [Example 216-U]
  IC50: 5 nM

## C[C@@H](N)c1cccc(-c2cc(COc3ccccc3CC(=O)O)cc(N3CCCC3)c2)c1F [Example 216-V]
  IC50: 9 nM

## C[C@@H](N)c1cccc(-c2cc(NC[C@H]3CCCO3)c3c(c2)C(Oc2ccccc2CC(=O)O)CCO3)c1F (stereo partly shown) [Example 216-W]
  IC50: 17 nM

## C[C@@H](N)c1cccc(-c2cc(NCC3CC3)c3c(c2)C(Oc2ccccc2CC(=O)O)CCO3)c1F (stereo partly shown) [Example 216-X]
  IC50: 14 nM

## C[C@@H](N)c1cccc(-c2cc(NC[C@H]3CCCO3)c3c(c2)C(Oc2ccccc2CC(=O)O)CCC3)c1F (stereo partly shown) [Example 216-Y]
  IC50: 19 nM

## C[C@@H](N)c1cccc(-c2cc(NCC3CC3)c3c(c2)C(Oc2ccccc2CC(=O)O)CCC3)c1F (stereo partly shown) [Example 216-Z]
  IC50: 13 nM

## C[C@@H](N)c1cccc(-c2cc(C#Cc3ccn(C)n3)cc(COc3ccccc3CC(=O)O)c2)c1F [Example 218-G, (R)-2-(2-((3′-(1-Aminoethyl)-2′-fluoro-5-((1-methyl-1H-pyrazol-3-yl)ethynyl)-[1,1′-biphenyl]-3-yl)methoxy)phenyl)acetic acid]
  IC50: 6 nM

## C[C@@H](N)c1cccc(-c2cc(CCc3ccn(C)n3)cc(COc3ccccc3CC(=O)O)c2)c1F [Example 218-I, (R)-2-(2-((3′-(1-aminoethyl)-2′-fluoro-5-(2-(1-methyl-1H-pyrazol-3-yl)ethyl)-[1,1′-biphenyl]-3-yl)methoxy)phenyl)acetic acid]
  IC50: 10 nM

## C[C@@H](N)c1cccc(-c2ccc3c(c2)N(Cc2ccccc2CC(=O)O)CCC3)c1F [Example 219-D, (R)-2-(2-((7-(3-(1-Aminoethyl)-2-fluorophenyl)-3,4-dihydroquinolin-1(2H)-yl)methyl)phenyl)acetic acid]
  IC50: 61 nM

## C[C@@H](N)c1cccc(-c2cccc(N(C)Cc3ccccc3CC(=O)O)c2)c1F [Example 220-D, (R)-2-(2-(((3′-(1-aminoethyl)-2′-fluoro-[1,1′-biphenyl]-3-yl)(methyl)amino)methyl)phenyl)acetic acid]
  IC50: 44 nM

## C[C@@H](N)c1cccc(-c2cc(N)c(F)c(COc3ccccc3CC(=O)O)c2)c1F [Example 221 a), (R)-2-(2-((5-amino-3′-(1-aminoethyl)-2′,4-difluoro-[1,1′-biphenyl]-3-yl)methoxy)phenyl)acetic acid]
  IC50: 6 nM

## C[C@@H](N)c1cccc(-c2cc(COc3ccccc3CC(=O)O)cc(NCC3CCCO3)c2F)c1F (stereo partly drawn) [Example 222, 2-(2-((3′-((R)-1-aminoethyl)-2′,6-difluoro-5-(((tetrahydrofuran-2-yl)methyl)amino)-[1,1′-biphenyl]-3-yl)methoxy)phenyl)acetic acid]
  IC50: 16 nM

## COCCNc1cc(COc2ccccc2CC(=O)O)cc(-c2cccc([C@@H](C)N)c2F)c1 [Example 223-B, (R)-2-(2-((3′-(1-aminoethyl)-2′-fluoro-5-((2-methoxyethyl)amino)-[1,1′-biphenyl]-3-yl)methoxy)phenyl)acetic acid]
  IC50: 9 nM

## CC(C)CNc1cc(COc2ccccc2CC(=O)O)cc(-c2cccc([C@@H](C)N)c2F)c1 [Example 224-B, (R)-2-(2-((3′-(1-aminoethyl)-2′-fluoro-5-(isobutylamino)-[1,1′-biphenyl]-3-yl)methoxy)phenyl)acetic acid]
  IC50: 9 nM

## C[C@@H](N)c1cccc(-c2cc(COc3ccccc3CC(=O)O)cc(NC[C@H]3CCCO3)c2)n1 [Example 225-C, 2-(2-((3-(6-((R)-1-aminoethyl)pyridin-2-yl)-5-((((R)-tetrahydrofuran-2-yl)methyl)amino)benzyl)oxy)phenyl)acetic acid]
  IC50: 16 nM

## C[C@@H](N)c1cccc(-c2cc(COc3ccccc3CC(=O)O)cc(NCC(F)(F)F)c2)c1F [Example 226-C, (R)-2-(2-((3′-(1-aminoethyl)-2′-fluoro-5-((2,2,2-trifluoroethyl)amino)-[1,1′-biphenyl]-3-yl)methoxy)phenyl)acetic acid]
  IC50: 8 nM

## C[C@@H](N)c1cccc(-c2cc(COc3ccccc3CC(=O)O)cc(NCC3(C)CC3)c2)c1F [Example 227, (R)-2-(2-((3′-(1-aminoethyl)-2′-fluoro-5-(((1-methylcyclopropyl)methyl)amino)-[1,1′-biphenyl]-3-yl)methoxy)phenyl)acetic acid]
  IC50: 10 nM

## CC(=O)N(C)c1cc(COc2ccccc2CC(=O)O)cc(-c2cccc([C@@H](C)N)c2F)c1 [Example 229, (R)-2-(2-((3′-(1-aminoethyl)-2′-fluoro-5-(N-methylacetamido)-[1,1′-biphenyl]-3-yl)methoxy)phenyl)acetic acid]
  IC50: 107 nM

## C[C@@H](N)c1cccc(-c2cc(COc3ccccc3CC(=O)O)cc(-c3cnn(C)c3)c2)c1F [Example 230, (R)-2-(2-((3′-(1-aminoethyl)-2′-fluoro-5-(1-methyl-1H-pyrazol-4-yl)-[1,1′-biphenyl]-3-yl)methoxy)phenyl)acetic acid]
  IC50: 3 nM

## C[C@@H](N)c1cccc(-c2cc(COc3ccccc3CC(=O)O)cc(OCC(F)(F)F)c2)c1F [Example 231-B, (R)-2-(2-((3′-(1-aminoethyl)-2′-fluoro-5-(2,2,2-trifluoroethoxy)-[1,1′-biphenyl]-3-yl)methoxy)phenyl)acetic acid]
  IC50: 11 nM

## N[C@H](CO)c1cccc(-c2cc(COc3ccccc3CC(=O)O)cc(OC[C@H]3CCCO3)c2)c1F [Example 231-F, 2-(2-((3′-((S)-1-amino-2-hydroxyethyl)-2′-fluoro-5-(((R)-tetrahydrofuran-2-yl)methoxy)-[1,1′-biphenyl]-3-yl)methoxy)phenyl)acetic acid]
  IC50: 9 nM

## C[C@@H](N)c1cccc(-c2cc(COc3ccccc3CC(=O)O)cc(OC[C@H]3CCCO3)c2)c1F [Example 232, 2-(2-((3′-((R)-1-aminoethyl)-2′-fluoro-5-(((R)-tetrahydrofuran-2-yl)methoxy)-[1,1′-biphenyl]-3-yl)methoxy)phenyl)acetic acid]
  IC50: 2 nM

## C[C@H](N)c1cccc(-c2cc(COc3ccccc3CC(=O)O)cc(OC[C@H]3CCCO3)c2)c1F [Example 233, 2-(2-((3′-((S)-1-aminoethyl)-2′-fluoro-5-(((R)-tetrahydrofuran-2-yl)methoxy)-[1,1′-biphenyl]-3-yl)methoxy)phenyl)acetic acid]
  IC50: 4 nM

## NCc1cccc(-c2cc(COc3ccccc3CC(=O)O)cc(OC[C@H]3CCCO3)c2)c1F [Example 234-B, (R)-2-(2-((3′-(aminomethyl)-2′-fluoro-5-((tetrahydrofuran-2-yl)methoxy)-[1,1′-biphenyl]-3-yl)methoxy)phenyl)acetic acid]
  IC50: 4 nM

## C[C@@H](N)c1cccc(-c2cc(COc3ccccc3CC(=O)O)cc(OC[C@H]3CCCO3)c2)n1 [Example 235, 2-(2-((3-(6-((R)-1-aminoethyl)pyridin-2-yl)-5-(((R)-tetrahydrofuran-2-yl)methoxy)benzyl)oxy)phenyl)acetic acid]
  IC50: 34 nM

## C[C@@H](N)c1cccc(-c2cc(CCC3CCCO3)cc(COc3ccccc3CC(=O)O)c2)c1F (stereo partly drawn) [Example 236-C, 2-(2-((3′-((R)-1-aminoethyl)-2′-fluoro-5-(2-(tetrahydrofuran-2-yl)ethyl)-[1,1′-biphenyl]-3-yl)methoxy)phenyl)acetic acid]
  IC50: 9 nM

## C[C@@H](N)c1cccc(-c2cc(CCC3CCCC3)cc(COc3ccccc3CC(=O)O)c2)c1F [Example 237, (R)-2-(2-((3′-(1-aminoethyl)-5-(2-cyclopentylethyl)-2′-fluoro-[1,1′-biphenyl]-3-yl)methoxy)phenyl)acetic acid]
  IC50: 11 nM

## C[C@@H](N)c1cccc(-c2cc(CCC3CCCN3)cc(COc3ccccc3CC(=O)O)c2)c1F (stereo partly drawn) [Example 238, 2-(2-((3′-((R)-1-aminoethyl)-2′-fluoro-5-(2-(pyrrolidin-2-yl)ethyl)-[1,1′-biphenyl]-3-yl)methoxy)phenyl)acetic acid]
  IC50: 23 nM

## C[C@@H](N)c1cccc(-c2cc(CCC3CNCCO3)cc(COc3ccccc3CC(=O)O)c2)c1F (stereo partly drawn) [Example 239-C, 2-(2-((3′-((R)-1-aminoethyl)-2′-fluoro-5-(2-(morpholin-2-yl)ethyl)-[1,1′-biphenyl]-3-yl)methoxy)phenyl)acetic acid]
  IC50: 13 nM

## C[C@@H](N)c1cccc(-c2cc(CCC3CCCN3C)cc(COc3ccccc3CC(=O)O)c2)c1F (stereo partly drawn) [Example 240-B, 2-(2-((3′-((R)-1-aminoethyl)-2′-fluoro-5-(2-(1-methylpyrrolidin-2-yl)ethyl)-[1,1′-biphenyl]-3-yl)methoxy)phenyl)acetic acid]
  IC50: 110 nM

## C[C@@H](N)c1cccc(-c2cc(COc3ccccc3CC(=O)O)cc(N3CCCCC3)c2)c1F [Example 241-C, (R)-2-(2-((3′-(1-Aminoethyl)-2′-fluoro-5-(piperidin-1-yl)-[1,1′-biphenyl]-3-yl)methoxy)phenyl)acetic acid]
  IC50: 40 nM

## CCN(CC1CC1)c1cc(COc2ccccc2CC(=O)O)cc(-c2cccc([C@@H](C)N)c2F)c1 [Example 242-C, (R)-2-(2-((3′-(1-aminoethyl)-5-((cyclopropylmethyl)(ethyl)amino)-2′-fluoro-[1,1′-biphenyl]-3-yl)methoxy)phenyl)acetic acid]
  IC50: 90 nM

## C[C@@H](N)c1cccc(-c2cc(COc3ccccc3CC(=O)O)cc(C3CCCCC3)c2)c1F [Example 243-D, (R)-2-(2-((3′-(1-aminoethyl)-5-cyclohexyl-2′-fluoro-[1,1′-biphenyl]-3-yl)methoxy)phenyl)acetic acid]
  IC50: 13 nM

## C[C@@H](N)c1cccc(-c2cc(COc3ccccc3CC(=O)O)cc(C3CCCC3)c2)c1F [Example 244, (R)-2-(2-((3′-(1-aminoethyl)-5-cyclopentyl-2′-fluoro-[1,1′-biphenyl]-3-yl)methoxy)phenyl)acetic acid]
  IC50: 3 nM
